{
  "source": "paper PMC10160475",
  "about": "“Biological evaluation and in silico studies of novel compounds as potent TAAR1 agonists that could be used in schizophrenia treatment” (Frontiers in Pharmacology, 2023)",
  "key": {"[1]": {"system": "MK801-induced schizophrenia-like behavior", "assay": "MK801-induced schizophrenia-like behavior (open field, distance traveled)", "type": "in vivo, C57BI/6J mice", "experimental": "Ninety-nine male C57BI/6J mice were divided randomly into 11 groups. Mice were placed in a room 1 h before testing. They were administered (p.o.) vehicle (0.1 ml/10 g), 50A (0.3, 1, 3, and 10 mg/kg; 0.1 ml/10 g), or 50B (0.3, 1, 3, and 10 mg/kg; 0.1 ml/10 g). […] Then, mice were administered (i.p.) MK801 (0.8 mg/kg dissolved in physiologic saline; 0.1 ml/10 g). After 30 min, the distance that mice traveled was measured.\nForty-six male C57BI/6J mice were divided randomly into four groups. The CN group contained four mice. […] The administration method described previously was employed."}, "[2]": {"system": "catalepsy", "assay": "Catalepsy assay (bar test)", "type": "in vivo, C57BI/6J mice", "details": "100 mg/kg p.o., 30 and 90 min after administration", "experimental": "Twenty-four male C57BI/6J mice were divided randomly into four groups. Mice were placed in a room 1 h before testing. […] The front paws of mice were placed on a horizontal metal bar raised 2 inches above a Plexiglas™ platform 30 min and 90 min after administration. The time the front paws of mice were placed on the platform was recorded at ≤30 s per trial. Each test was repeated three times."}, "[3]": {"target": "T1, human 5-HT2A (Homo sapiens, UniProt P28223)", "T1 construct": "expressed in transfected cells; host or cells: Flp-In-CHO cell line", "T1 sequence (P28223 whole entry)": "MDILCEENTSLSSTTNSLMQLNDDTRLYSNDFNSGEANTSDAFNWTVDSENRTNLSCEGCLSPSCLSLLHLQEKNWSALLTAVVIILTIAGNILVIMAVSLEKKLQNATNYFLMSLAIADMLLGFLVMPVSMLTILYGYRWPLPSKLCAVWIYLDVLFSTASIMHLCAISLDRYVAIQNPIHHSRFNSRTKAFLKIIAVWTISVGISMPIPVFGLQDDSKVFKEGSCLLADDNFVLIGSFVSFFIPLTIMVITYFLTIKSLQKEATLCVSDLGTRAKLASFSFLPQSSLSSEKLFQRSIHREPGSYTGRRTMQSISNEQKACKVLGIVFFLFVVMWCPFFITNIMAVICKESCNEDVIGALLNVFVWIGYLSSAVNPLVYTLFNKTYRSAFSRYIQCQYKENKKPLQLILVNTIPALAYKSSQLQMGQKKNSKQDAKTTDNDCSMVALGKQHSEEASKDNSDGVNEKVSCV", "assay": "Calcium (FLIPR) assay, antagonist activity at human 5-HT2A", "type": "cell-based", "experimental": "(§1) With regard to 5-HT2A, the agonistic or inhibitory activity of 5-HT2A of compounds was determined using the Flp-In™-CHO cell line expressing human 5-HT2A. Cells were cultured with Ham’s F-12K (Kaighn’s) medium supplemented with 10% FBS, penicillin (100 U/ml), streptomycin (100 μg/ml), and hygromycin B (600 μg/ml) at 37°C in an atmosphere of 95% air and 5% CO2. Cells were stimulated with different concentrations of compounds for 2 h at 37°C after seeding in 384-well microplates. For the determination of agonistic activity, serotonin was used as the MAX control. In the determination of inhibitory activity, ketanserin was used as the MAX control."}, "[4]": {"target": "T2, hERG (Homo sapiens, UniProt Q12809)", "T2 construct": "expressed in transfected cells; host or cells: CHO cells stably expressing hERG", "T2 sequence (Q12809 whole entry)": "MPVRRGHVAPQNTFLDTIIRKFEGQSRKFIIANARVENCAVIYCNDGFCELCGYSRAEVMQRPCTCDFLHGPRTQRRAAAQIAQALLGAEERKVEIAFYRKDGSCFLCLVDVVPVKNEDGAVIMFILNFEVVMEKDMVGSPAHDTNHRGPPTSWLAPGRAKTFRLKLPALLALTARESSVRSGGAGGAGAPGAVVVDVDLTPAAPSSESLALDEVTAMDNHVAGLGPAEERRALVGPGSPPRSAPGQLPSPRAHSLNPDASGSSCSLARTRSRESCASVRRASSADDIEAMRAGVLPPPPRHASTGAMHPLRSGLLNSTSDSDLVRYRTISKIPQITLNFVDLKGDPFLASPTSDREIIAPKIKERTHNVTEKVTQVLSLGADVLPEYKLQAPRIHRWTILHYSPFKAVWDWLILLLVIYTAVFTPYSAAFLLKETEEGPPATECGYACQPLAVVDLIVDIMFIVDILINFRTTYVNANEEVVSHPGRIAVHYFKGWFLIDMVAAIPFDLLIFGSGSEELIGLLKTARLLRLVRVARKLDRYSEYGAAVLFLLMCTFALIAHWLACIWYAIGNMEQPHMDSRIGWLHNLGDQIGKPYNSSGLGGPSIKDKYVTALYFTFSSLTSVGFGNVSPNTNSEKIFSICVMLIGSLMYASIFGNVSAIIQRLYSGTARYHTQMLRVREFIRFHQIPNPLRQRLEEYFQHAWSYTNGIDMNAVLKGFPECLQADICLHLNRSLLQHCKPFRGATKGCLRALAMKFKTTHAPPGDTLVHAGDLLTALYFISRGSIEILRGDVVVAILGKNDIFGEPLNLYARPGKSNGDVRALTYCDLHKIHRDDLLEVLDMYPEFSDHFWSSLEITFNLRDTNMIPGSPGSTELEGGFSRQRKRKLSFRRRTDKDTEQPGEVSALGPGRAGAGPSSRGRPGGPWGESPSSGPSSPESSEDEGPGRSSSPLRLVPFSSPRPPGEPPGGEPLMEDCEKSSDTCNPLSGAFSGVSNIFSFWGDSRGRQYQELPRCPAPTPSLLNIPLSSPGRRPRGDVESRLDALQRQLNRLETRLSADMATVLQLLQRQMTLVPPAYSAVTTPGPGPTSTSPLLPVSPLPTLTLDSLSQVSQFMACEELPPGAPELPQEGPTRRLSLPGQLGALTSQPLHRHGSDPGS", "assay": "hERG assay (electrophysiological recording, CHO cells stably expressing hERG)", "type": "cell-based", "details": "up to a maximum concentration of 30 μM", "experimental": "CHO cells stably expressing hERG cultured with DMEM/F12 supplemented with 10% FBS, penicillin (100 U/ml), and streptomycin (100 μg/ml) were cultured in cell culture dishes (diameter = 35 mm) in an incubator at 37°C in an atmosphere of 5% CO2. They were passaged at a ratio of 1:5 every 48 h. The medium comprised 90% F12, 10% FBS, G418 (100 μg/ml), and hygromycin B (100 μg/ml). On the day of the assay, the cell culture medium was aspirated and washed with an extracellular solution. Then, 0.25% Trypsin–EDTA solution was added, and digestion was allowed for 3–5 min at room temperature. Digestive juice was aspirated, and cells were transferred to the experimental dish for electrophysiological recording after resuspension with the extracellular solution for future use."}, "[5]": {"target": "T3, human 5-HT1A (Homo sapiens, UniProt P08908)", "T3 construct": "expressed in transfected cells; host or cells: Gα15-CHO-Clone cells", "T3 sequence (P08908 1-422)": "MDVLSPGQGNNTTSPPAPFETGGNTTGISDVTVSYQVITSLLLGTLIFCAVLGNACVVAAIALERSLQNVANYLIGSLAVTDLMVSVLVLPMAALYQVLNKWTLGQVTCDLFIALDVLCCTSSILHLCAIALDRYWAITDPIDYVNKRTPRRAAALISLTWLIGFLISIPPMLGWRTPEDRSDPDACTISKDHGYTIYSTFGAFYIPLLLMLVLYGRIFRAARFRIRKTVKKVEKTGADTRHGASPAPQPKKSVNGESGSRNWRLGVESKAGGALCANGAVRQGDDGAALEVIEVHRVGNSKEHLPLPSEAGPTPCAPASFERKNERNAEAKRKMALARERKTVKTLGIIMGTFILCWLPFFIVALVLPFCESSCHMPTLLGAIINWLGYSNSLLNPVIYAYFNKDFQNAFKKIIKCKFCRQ", "assay": "Calcium (FLIPR) assay, agonist activity at human 5-HT1A", "type": "cell-based", "experimental": "With respect to 5-HT1A, recombinant Gα15-CHO-Clone cells expressing human 5-HT1A were used in this test. Cells were cultured with MEM supplemented with 10% FBS, penicillin (100 U/ml), streptomycin (100 μg/ml), and hygromycin B (600 μg/ml) and were seeded in 384-well microplates. Cells were stimulated with different concentrations of compounds for 2 h at 37°C, and the agonistic effect was determined using the FLIPR Calcium Assay Kit. Serotonin was used as the MAX control. Percentage activity was calculated using the following equation: Activity %=mean RLUtest sample−mean RLUvehicle control/mean RLUMAX control−mean RLUvehicle control×100%."}, "[6]": {"target": "T4, human dopamine D2L receptors (Homo sapiens, UniProt P14416)", "T4 construct": "expressed in transfected cells; host or cells: Flp-In-CHO cells", "T4 sequence (P14416 whole entry)": "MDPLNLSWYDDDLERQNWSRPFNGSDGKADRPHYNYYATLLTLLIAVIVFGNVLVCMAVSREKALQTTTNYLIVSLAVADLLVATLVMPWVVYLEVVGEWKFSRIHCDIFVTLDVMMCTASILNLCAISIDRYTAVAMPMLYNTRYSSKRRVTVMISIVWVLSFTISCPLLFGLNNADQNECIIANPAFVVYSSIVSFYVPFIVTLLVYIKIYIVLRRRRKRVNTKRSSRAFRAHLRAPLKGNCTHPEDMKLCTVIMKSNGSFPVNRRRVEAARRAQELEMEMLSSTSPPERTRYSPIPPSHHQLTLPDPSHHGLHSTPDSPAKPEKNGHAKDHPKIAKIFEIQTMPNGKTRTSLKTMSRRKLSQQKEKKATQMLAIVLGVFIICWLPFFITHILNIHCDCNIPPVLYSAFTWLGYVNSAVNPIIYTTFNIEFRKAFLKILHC", "assay": "cAMP assay, inhibition at human dopamine D2L receptors", "type": "cell-based", "experimental": "With regard to D2L and D2S, recombinant Flp-In™-CHO cells expressing human dopamine D2L receptors or D2S receptors were cultured with Ham’s F-12K (Kaighn’s) medium supplemented with 10% FBS, penicillin (100 U/ml), streptomycin (100 μg/ml), and hygromycin B (600 μg/ml) at 37°C in an atmosphere of 5% CO2. The methods of cell inoculation and compound treatment were the same as those for TAAR1, and haloperidol was used as the MAX control. Percentage inhibition was calculated using the following equation: Inhibition %=mean RLUtest sample−mean RLUvehicle control/mean RLUMAX control−mean RLUvehicle control×100%."}, "[7]": {"assay": "Permeability and transporter substrate evaluation in Caco-2 cells", "type": "in vitro ADME", "details": "human", "experimental": "Cells were seeded into 96-well cell plates and cultured continuously for 24 days for subsequent experiments. Compounds were administered with or without verapamil (2 µM). […] The […] content in each sample was measured by liquid chromatography–tandem mass spectrometry (LC-MS/MS). The apparent permeability coefficient and the efflux ratio were calculated."}, "[8]": {"target": "T1, human 5-HT2A", "assay": "Calcium (FLIPR) assay, agonist activity at human 5-HT2A", "type": "cell-based", "experimental": "as §1"}},
  "data": [
    {"compound": "c1csc([C@@H]2CNCCO2)c1", "note": "[Compound 50B]", "values": [
      {"measurement": "MK801-induced increase in distance traveled", "setting": "[1]; mice, 10 mg/kg p.o., MK801 0.8 mg/kg i.p.", "result": "significantly reduced"},
      {"measurement": "Inhibition of MK801-induced schizophrenia-like behavior (effective doses)", "setting": "[1]; mice, single oral dose 0.3, 1, 3 and 10 mg/kg, MK801 0.8 mg/kg i.p.", "result": "markedly at 1, 3, and 10 mg/kg"},
      {"measurement": "Distance moved by mice in the presence or absence of MK801", "setting": "[1]; single oral dose 0.3, 1, 3 and 10 mg/kg", "result": "significantly reduced the distance moved by mice"},
      {"measurement": "Time mice spent holding bars (catalepsy)", "setting": "[2]", "result": "did not increase this time"},
      {"measurement": "IC50", "setting": "[3]", "result": "> 100", "unit": "µM"},
      {"measurement": "Emax", "setting": "[3]; ketanserin as MAX control, up to 100 μM", "result": 31.5, "unit": "%"},
      {"measurement": "hERG cardiotoxicity", "setting": "[4]", "result": "not cardiotoxic"},
      {"measurement": "EC50", "setting": "[5]", "result": 99.8, "unit": "µM"},
      {"measurement": "Emax", "setting": "[5]; serotonin as MAX control, up to 100 μM, read-out: 5-HT1A agonism Emax", "result": 50.3, "unit": "%"},
      {"measurement": "IC50", "setting": "[6]", "result": "> 100", "unit": "µM"},
      {"measurement": "Emax", "setting": "[6]; haloperidol as MAX control, up to 100 μM, read-out: dopamine D2L antagonist Emax", "result": 5.49, "unit": "%"},
      {"measurement": "efflux ratio at 120 min", "setting": "[7]; Caco-2", "result": 0.781},
      {"measurement": "Papp A→B at 120 min", "setting": "[7]; Caco-2, 120 min incubation", "result": 35.2, "unit": "×10⁻⁶ cm/s"},
      {"measurement": "Papp B→A at 120 min", "setting": "[7]; Caco-2, 120 min incubation", "result": 27.5, "unit": "×10⁻⁶ cm/s"},
      {"measurement": "EC50", "setting": "[8]", "result": 61.2, "unit": "µM"},
      {"measurement": "Emax", "setting": "[8]; serotonin as MAX control, up to 100 μM, read-out: 5-HT2A agonism Emax", "result": 54.9, "unit": "%"}
    ]}
  ]
}
